# Results taken from patent US8618079B2, “Imidazo[1,2-a] pyridinyl bisphosphonates” (Isis Innovation Limited, priority 2008, dated 2013).
# What was measured:
# [1] = Hydroxyapatite (HAP) affinity, chromatographic retention on HAP column; assay type: physicochemical; conditions: phosphate buffer gradient 1 mM to 1000 mM, pH 6.8, longer retention = higher mineral affinity
# [2] = target: T1, human farnesyl pyrophosphate synthase (FPPS) (Homo sapiens, UniProt P14324); assay: FPPS inhibition; assay type: biochemical; conditions: recombinant human FPPS; for IC50: after pre-incubation; for Ki: read-out: FPPS inhibition Ki (final inhibition constant)
# T1 construct: made in house
# T1 sequence (P14324 67-419 limits assumed): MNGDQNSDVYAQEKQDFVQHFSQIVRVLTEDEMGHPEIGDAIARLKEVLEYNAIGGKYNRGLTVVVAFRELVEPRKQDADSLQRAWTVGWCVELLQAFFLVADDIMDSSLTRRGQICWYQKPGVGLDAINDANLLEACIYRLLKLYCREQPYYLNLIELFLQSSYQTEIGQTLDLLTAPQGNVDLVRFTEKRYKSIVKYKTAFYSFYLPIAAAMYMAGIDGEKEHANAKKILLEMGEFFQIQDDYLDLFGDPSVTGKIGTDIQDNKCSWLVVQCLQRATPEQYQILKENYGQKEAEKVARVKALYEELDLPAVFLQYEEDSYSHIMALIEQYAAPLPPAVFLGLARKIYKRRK
# Sprague Dawley rats = assay: Schenk model, in vivo bone resorption inhibition (tibial BMD); conditions: rat, subcutaneous once daily for 7 days; dose increasing proximal tibial BMD 20% over control
# Experimental: The compounds were evaluated for in vivo bone resorption inhibition and mineralization inhibition in an animal model system known in the field of bone metabolism as the Schenk Model. The general principles of this model system are disclosed in Shinoda et al., Calcif. Tissue Int., 35: 87-99 (1983); and in Schenk et al., Calcif. Tissue Res. 11: 196-214 (1973), the disclosures of which are incorporated herein by reference in their entireties.
# Animals: Weanling male Sprague Dawley rats (Charles River Breeding Laboratories, Raleigh, N.C.) approximately 6 weeks old with weights ranging between 120 and 150 grams were placed into groups based on body weight, with 6 animals per group. All groups received treatment by subcutaneous injection (SQ) once daily (QD) for 7 days.
# Dose Solutions and Dosing Procedure: On day 0, all animals received an injection of 3% xylenol orange (90 mg/kg; Sigma) in normal saline, pH adjusted to 7.4. On day 4 all animals were given a subcutaneous injection of 1% Calcein (10 mg/kg, Sigma) in 0.9% NaCl solution to label the skeleton. The first treatment was on day 0, and the last treatment on day 6, with animals euthanized on day 7. Concentrations were based on dosing 0.2 ml/100 g body weight. Compounds were administered at doses ranging from 0.0001 to 1 mg P/kg/day for 7 days at semi-log doses. The dose range was based on the IC 50 in the FPPS inhibition assay, and on the affinity to hydroxyapatite (HAP Affinity). Three to seven doses were chosen per test compound. Adjustments in dosage based on changes in body weight were made on a daily basis.
# Necropsy, Tissue Processing and Histomorphometry: On day 7 after the start of dosing, all animals were euthanized via exsanguination under gas anesthesia and/or CO2. The right tibia and femur were dissected free and placed in 70% ethyl alcohol. The proximal metaphysis of the right tibia was analyzed using dual energy x-ray analysis (DXA). This provides information on changes in both cortical and cancellous bone density. The primary end-point for this study was bone mineral density in the tibia measured using a Hologics QDR-4500 densitometer (Hologics, Inc). Statistical evaluation of data was made using parametric and non-parametric analysis of variance and Wilcoxon's rank sum test to determine a statistically significant effect compared to control animals.
# The Schenk model provided data for in vivo bone resorption inhibition by the compounds, see Table 3. Bone mineral density (BMD) was assessed with a Hologics 4500A on a region of the proximal tibial metaphysic. Efficacy of each bisphosphonate was expressed as the percent change from the vehicle control group. The dose that increased bone mineral density (BMD) 20% greater than control was determined via a logistic dose response relationship (SAS), which estimates an efficacy value using all animals in the study, and identified as D20 for comparison of bisphosphonates across studies. (Lundy et al., J. Bone Min. Res. 22(Suppl 1): S443, (2007)). Data from compounds run in multiple studies was averaged.
# [3] = system: collagen induced arthritis (CIA) rat; assay: Collagen induced arthritis (CIA) rat model, bone resorption scores; assay type: in vivo
# Experimental: The collagen induced arthritis (CIA) rat model is an in vivo model that provides for an evaluation of the inhibition of inflammation as well as inhibition of bone erosion. The study was performed according to the method of Bendele et al., Arthritis & Rheumatism, 43: 2648-2659 (2000), incorporated herein by reference in its entirety, with the exception that male animals were used instead of female animals.
# Arthritis was induced in rats by injecting collagen on days 0 and 6. The bisphosphonate compound of Example 4 (1-fluoro-2-(imidazo-[1,2-α]pyridin-3-yl)-ethyl-bisphosphonic acid) was administered at four different dosages (1.57 μg/kg, 15.69 μg/kg, 156.9 μg/kg, and 523.0 μg/kg; n=10/group) by subcutaneous injection on day 0, and compared to vehicle control (n=10). An additional group was administered 10 mg/kg Enbrel® (n=10) on days 9, 12, and 15 as a positive control. The study was stopped on day 17 and the animals were evaluated for ankle thickness and paw weight, indices of inflammation. The ankle and knees were removed as one piece, placed in formalin, decalcified and processed for histology. Sections were stained with toluidine blue and graded for inflammation, pannus and cartilage degradation on a score of 0 (normal) to 5 (severe). Bone erosion was also scored in the ankle and knee on a 0-5 score.
Structure (SMILES),HAP Affinity Retention time [1],IC50 [2],Ki [2],Schenk D20 (mg P/kg) 20% > BMD than control (Sprague Dawley rats),"ankle bone resorption score, dose response ([3]; single subcutaneous injection day 0, 1.57-523.0 μg/kg, scored day 17 (FIG. 9))","knee bone resorption score, dose response ([3]; single subcutaneous injection day 0, 1.57-523.0 μg/kg, scored day 17 (FIG. 10))","knee bone resorption score, decrease relative to vehicle ([3]; three highest dosage levels (15.69 μg/kg, 156.9 μg/kg and 523.0 μg/kg), p=0.05 (FIG. 10))","ankle bone resorption score, decrease relative to vehicle ([3]; two highest dosage levels (156.9 μg/kg and 523.0 μg/kg), p=0.05 (FIG. 9))"
"Cc1ccn2c(CC(F)(P(=O)(O)O)P(=O)(O)O)cnc2c1 [compound 11, 1-fluoro-2-(7-methyl)-imidazo-[1,2-α]pyridin-3-yl-ethyl-bisphosphonic acid]",6.2 min,60.3 nM,9.6 nM,0.002 mg P/kg,,,,
"Cc1ccn2c(CC(P(=O)(O)O)P(=O)(O)O)cnc2c1 [compound 15, 2-(7-methyl)-imidazo-[1,2-α]pyridin-3-yl-ethyl-bisphosphonic acid]",6.6 min,39.7 nM,6.1 nM,0.008 mg P/kg,,,,
"O=P(O)(O)C(O)(Cn1ccnc1)P(=O)(O)O [Zoledronate, reference compound]",12.53 min,,,0.00008 mg P/kg,,,,
"Cc1ccc2ncc(CC(P(=O)(O)O)P(=O)(O)O)n2c1 [compound 81, 2-(6-methylimidazo-[1,2-α]pyridin-3-yl)-ethyl-bisphosphonic acid]",6.6 min,380 nM,64 nM,,,,,
"CCc1nc2ccccn2c1CC(P(=O)(O)O)P(=O)(O)O [compound 75, [(2-ethyl-imidazo[1,2-α]pyridin-3-yl)-methyl]-bisphosphonic acid]",4.83 min,27 nM,2.5 nM,,,,,
"O=P(O)(O)C(Cc1cnc2c(O)cccn12)P(=O)(O)O [compound 40, [2-(8-hydroxy-imidazo[1,2-α]pyridin-3-yl)-1-ethane]-bisphosphonic acid]",5.3 min,893 nM,151 nM,,,,,
"O=P(O)(O)C(O)(Cc1cccnc1)P(=O)(O)O [Risedronate, reference compound]",9.97 min,,,0.00045 mg P/kg,,,,
"O=P(O)(O)C(Cc1cnc2ccccn12)P(=O)(O)O [compound 80, 2-(imidazo-[1,2-α]pyridin-3-yl)-ethyl-bisphosphonic acid]",6.6 min,2.59 nM,0.013 nM,0.0006 mg P/kg,,,,
"O=P(O)(O)C(O)(Cc1cnc2ccccn12)P(=O)(O)O [Minodronate, reference compound]",10.33 min,,,0.0001 mg P/kg,,,,
"O=P(O)(O)C(F)(Cc1cnc2ccccn12)P(=O)(O)O [compound 23, 1-fluoro-2-(imidazo-[1,2-α]pyridin-3-yl)-ethyl-bisphosphonic acid]",6.17 min,2.46 nM,0.014 nM,0.0003 mg P/kg,dose-dependent decrease in bone resorption,dose dependent decrease in bone resorption,statistically different,statistically different
"NCCCC(O)(P(=O)(O)O)P(=O)(O)O [Alendronate, reference compound]",,,,0.0015 mg P/kg,,,,
"O=P(O)(O)C(Cc1cnc2ccc(F)cn12)P(=O)(O)O [compound 34, [2-(6-fluoro-imidazo[1,2-α]pyridin-3-yl)-ethyl]-bisphosphonic acid]",6.3 min,106 nM,17.5 nM,,,,,
